From patent US20250326708A1, “LONG-ACTING SPLEEN-TARGETING CATIONIC LIPID COMPOUND COMPRISING BENZENE RING STRUCTURE, COMPOSITION COMPRISING SAME, AND USE THEREOF” (Beijing Youcarekechuang Pharmaceutical Technology Co., Ltd., priority 2024, published 2025)

System: female BALB/C mice
Test: Expression of delivered mRNA in mice in vivo (IVIS in vivo imaging)
Conditions: for Expression level of mRNA in vivo, times that of YK-904: vs YK-904; for Average radiation intensity, in vivo imaging: 10 μg Fluc-mRNA via tail vein; for Expression level of mRNA in vivo, times that of SM-102: vs SM-102; for Expression level of mRNA in vivo, times that of YK-501: vs YK-501; for Expression level of mRNA in vivo, times that of YK-506: vs YK-506; for Expression level of mRNA in vivo, times that of compound 7: vs compound 7
In short: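 Female BALB/c mice (4–6 weeks, 17–19 g) received LNPs carrying 10 μg Fluc-mRNA via tail vein. At 6 h, 24 h, 48 h and 7 d, imaging substrate was given i.p. and, after 5 min, average radiance was measured by IVIS Spectrum imaging.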

Structure (SMILES): CCCCCCCCCCCOC(=O)CCCN(CCCCCCC(=O)OCCC(CCCCCC)CCCCCC)CCNC(CO)(CO)CCc1ccc(CCCCCCCC)cc1 [YK-910, 3-hexylnonyl 7-((2-((1-hydroxy-2-(hydroxymethyl)-4-(4-octylphenyl)butan-2-yl)amino)ethyl) (4-oxo-4-(undecyloxy)butyl)amino) heptanoate]
- Expression level of mRNA in vivo, times that of YK-904 (6 h): 12.03 times
- Average radiation intensity, in vivo imaging (6 h): 13425454
- Expression level of mRNA in vivo, times that of SM-102 (24 h): 6.78 times
- Expression level of mRNA in vivo, times that of YK-501 (24 h): 12.21 times
- Expression level of mRNA in vivo, times that of YK-506 (24 h): 8.28 times
- Expression level of mRNA in vivo, times that of YK-904 (24 h): 18.49 times
- Expression level of mRNA in vivo, times that of compound 7 (24 h): 11.50 times
- Average radiation intensity, in vivo imaging (24 h): 2133322
- Expression level of mRNA in vivo, times that of YK-904 (48 h): 23.07 times
- Average radiation intensity, in vivo imaging (48 h): 658643
- Expression level of mRNA in vivo, times that of SM-102 (7 d): 9.24 times
- Expression level of mRNA in vivo, times that of YK-501 (7 d): 15.15 times
- Expression level of mRNA in vivo, times that of YK-506 (7 d): 2.49 times
- Expression level of mRNA in vivo, times that of YK-904 (7 d): 26.32 times
- Expression level of mRNA in vivo, times that of compound 7 (7 d): 10.03 times
- Average radiation intensity, in vivo imaging (7 d): 85363
